# Test results taken from patent US20230407243A1, “GENETIC PLATFORM TO INVESTIGATE THE FUNCTIONS OF BACTERIAL DRUG EFFLUX PUMPS” (priority 2022, published 2023).
# Several values for one entry are separate records, joined by “and”; a condition that tells them apart may be missing. Equal entries are not always repeated.
# Key:
# Type in all cases: cell-based, Escherichia coli
# [1] = tested on: EKO-35-Pore acrBD408A (functionally inactive AcrB variant); assay: Checkerboard synergy (FICI), porinated strain; conditions: EKO-35 acrBD408A Pore
# Procedure: (§1) Synergy measurement using checkerboard analysis was performed in 96-well microtiter plates using the microdilution broth method, according to CLSI guidelines (Patel J. B., 2015). The cell inocula were prepared using the colony resuspension method. The minimum inhibitory concentrations (MICs) were defined as the lowest concentration that provided no growth, as determined by measurement of the OD600nm using a Synergy H1 microplate reader (BioTek). Susceptibility testing was performed in MHB II with a final volume of 100 μL. PAI3N (Bachem Americas) was solubilized in MHB II. […] Solvent controls were included in each plate.
# (§2) The Fractional Inhibitory Concentration Index (FICI) was used to assess the synergy of PAI3N in combination with different antibiotics. The FICI represents the ΣFIC of each drug. The FICI for each drug was calculated using the following formula: FICI=FICA+FICB=(CA/MICA)+(CB/MICB). Where MICA and MICB are the MICs of drugs A (PAI3N/NMP) and B (antibiotic) alone, and CA and CB are the MICs of the drugs in combination. The effects of PAβN or NMP in combination with antibiotics were classified as: synergistic (FICI<0.5), additive (FICI>0.5-1.0), indifferent (FICI>1.0-2.0), and antagonistic (FICI>2.0). Fold increases in resistance provided by efflux pumps were calculated by dividing the MIC values of strains expressing efflux pumps by the MIC value of EKO-35.
# [2] = tested on: EKO-35 porinated strain expressing acrB; assay: Checkerboard synergy (FICI), porinated strain; conditions: EKO-35 acrB Pore
# Procedure: as §1, §2
# wild-type K-12-Pore = assay: Checkerboard synergy (FICI), porinated strain; conditions: K-12 Pore
# Procedure: as §1, §2
# EKO-35-Pore = assay: Checkerboard synergy (FICI), porinated strain; conditions: EKO-35 Pore
# Procedure: as §1, §2
# EKO-35 araC::acrB = assay: MIC susceptibility profiling, efflux platform
# In short: (§3)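 Overnight LB cultures resuspended in PBS to OD600 ~1.0, diluted 1/2000 into MHB II, and added to 2-fold serial compound dilutions in duplicate with DMSO controls. Incubated 18 h at 37° C. with 900 rpm shaking; OD600 read before and after, background subtracted, to derive MIC.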
# EKO-35 araC::emrKY = assay: MIC susceptibility profiling, efflux platform
# In short: as §3
# EKO-35 araC::acrD = assay: MIC susceptibility profiling, efflux platform
# In short: as §3
# [3] = tested on: EKO-35 araC::mexCD (MexCD from P. aeruginosa); assay: MIC susceptibility profiling, efflux platform
# In short: as §3
# EKO-35 araC::macAB = assay: MIC susceptibility profiling, efflux platform
# In short: as §3
# EKO-35 araC::mdtEF = assay: MIC susceptibility profiling, efflux platform
# In short: as §3
# EKO-35 araC::emrAB = assay: MIC susceptibility profiling, efflux platform
# In short: as §3
# [4] = Table 13A, non-porinated, technical duplicate
# [5] = Table 13B, non-porinated, technical duplicate
molecule,measurement,setting,value
phenylalanine-arginine-β-naphthylamide [PAβN],PABN MICa Combined,[1]; with Ciprofloxacin,8 µg/mL
same,PABN MICa Combined,[1]; with Erythromycin,16 µg/mL
same,PABN MICa Combined,[1]; with Fusidic Acid,8 µg/mL
same,PABN MICa Combined,[1]; with Linezolid,32 µg/mL
same,PABN MICa Combined,[1]; with Novobiocin,8 µg/mL
same,PABN MICa Combined,[1]; with Oxacillin,32 µg/mL
same,PABN MICa Combined,[2]; with Erythromycin,16 µg/mL
same,PABN MICa Combined,[2]; with Fusidic Acid,32 µg/mL
same,PABN MICa Combined,[2]; with Linezolid,16 µg/mL
same,PABN MICa Combined,[2]; with Novobiocin,16 µg/mL
same,PABN MICa Combined,[2]; with Oxacillin,16 µg/mL
same,PABN MICa Combined,wild-type K-12-Pore; with Ciprofloxacin,256 µg/mL
same,PABN MICa Combined,wild-type K-12-Pore; with Erythromycin,64 µg/mL
same,PABN MICa Combined,wild-type K-12-Pore; with Fusidic Acid,32 µg/mL
same,PABN MICa Combined,wild-type K-12-Pore; with Linezolid,32 µg/mL
same,PABN MICa Combined,wild-type K-12-Pore; with Novobiocin,2 µg/mL
same,PABN MICa Combined,wild-type K-12-Pore; with Oxacillin,64 µg/mL
same,PABN MICa Alone,"EKO-35-Pore; PAβN alone, one value per checkerboard, listed as PABN",64 µg/mL and 32 µg/mL
same,PABN MICa Combined,EKO-35-Pore; with Ciprofloxacin,2 µg/mL
same,PABN MICa Combined,EKO-35-Pore; with Erythromycin,8 µg/mL
same,PABN MICa Combined,EKO-35-Pore; with Fusidic Acid,16 µg/mL
same,PABN MICa Combined,EKO-35-Pore; with Linezolid,32 µg/mL
same,PABN MICa Combined,EKO-35-Pore; with Novobiocin,16 µg/mL
same,PABN MICa Combined,EKO-35-Pore; with Oxacillin,32 µg/mL
Nc1ccccc1SCc1nc(-c2ccc(Cl)cc2)no1 [compound 16],Fold change of MICs,EKO-35 araC::acrB; EKO-35 araC::acrB compared to EKO-35,32 fold
same,"Minimum Inhibitory Concentration, EKO-35 araC::acrB",EKO-35 araC::acrB; [4],320 µg/mL
same,Fold change of MICs,EKO-35 araC::emrKY; EKO-35 araC::emrKY compared to EKO-35,1 fold
same,"Minimum Inhibitory Concentration, EKO-35 araC::emrKY",EKO-35 araC::emrKY; [5],5 µg/mL
same,Fold change of MICs,EKO-35 araC::acrD; EKO-35 araC::acrD compared to EKO-35,1 fold
same,"Minimum Inhibitory Concentration, EKO-35 araC::acrD",EKO-35 araC::acrD; [4],10 µg/mL
same,Fold change of MICs,[3]; EKO-35 araC::mexCD compared to EKO-35,16 fold
same,"Minimum Inhibitory Concentration, EKO-35 araC::mexCD",[3]; [5],160 µg/mL
same,Fold change of MICs,EKO-35 araC::macAB; EKO-35 araC::macAB compared to EKO-35,1 fold
same,"Minimum Inhibitory Concentration, EKO-35 araC::macAB",EKO-35 araC::macAB; [5],10 µg/mL
same,Fold change of MICs,EKO-35 araC::mdtEF; EKO-35 araC::mdtEF compared to EKO-35,16 fold
same,"Minimum Inhibitory Concentration, EKO-35 araC::mdtEF",EKO-35 araC::mdtEF; [4],160 µg/mL
same,Fold change of MICs,EKO-35 araC::emrAB; EKO-35 araC::emrAB compared to EKO-35,16 fold
same,"Minimum Inhibitory Concentration, EKO-35 araC::emrAB",EKO-35 araC::emrAB; [5],160 µg/mL
